According to patent US20250221963A1 (GH RESEARCH IRELAND LIMITED, priority 2022, published 2025):
Several values for one entry are separate records, joined by “and”; a condition that tells them apart may be missing. Equal entries are not always repeated.

Key:
[1] = test system: patients with postpartum depression (PPD); test: Clinical trial of inhaled 5-MeO-DMT in postpartum depression; details: PPD patient
Procedure: The single-arm, open-label clinical trial will involve 15 adult female patients with clinically diagnosed postpartum depression (PPD).
The second dose (12 mg) will only be administered if: • a. […] The 6 mg dose was safe and well-tolerated according to the investigator, • c. Any psychoactive effects (PsE) of the prior dose have subsided, and • d. Pre-dose vital parameters and forced expiratory volume in one second (FEV1) are in normal range, or if outside of the normal range, are not clinically significant according to the investigator. • 3. Similarly, a third dose (18 mg) will only be administered if: • a. […] The 12 mg dose was safe and well-tolerated according to the investigator, and • c. Any PsE of the prior dose have subsided, and • d. Pre-dose vital parameters and forced expiratory volume in one second (FEV1) are in normal range, or if outside of the normal range, are not clinically significant according to the investigator.
The patients will be assessed for a peak psychedelic experience (based on a patient-scored visual analogue scale, the PE scale), sedation, and other endpoints after dosing. Follow-up visits are planned for Day 1, and Day 7 after the dosing day.
The following criteria must be met by all patients considered for clinical trial participation: • 1. Is female and in the age range between 18 and 45 years (inclusive) at screening. • 2. Has a body mass index (BMI) in the range of 18.5 and 35 kg/m^2 (inclusive) at screening. • 3. Meets the trial criteria for PPD as assessed by a trial psychiatrist or registered psychologist: • a. Diagnosis of Major Depressive Disorder without psychotic features, confirmed by the Mini-International Neuropsychiatric Interview (MINI), with peri-partum onset that began no earlier than gestation and no later than the first 4 weeks postpartum. • b. Has a Montgomery-Åsberg Depression Rating Scale (MADRS) total score of equal to or greater than 28 at screening and pre-dose on Day 0. • 6. […] Patients must have a negative pregnancy test at screening and on the pre-test day (Day −1). • 5. Is willing to delay start of other antidepressant or anxiety medication until after the end of the trial at Day 7 and agrees to keep any psychotherapy unchanged during the trial.
A potential patient who meets any of the following key exclusion criteria will be excluded from participation in this trial: • 1. Has, based on history, psychiatric assessment, and evaluation of the MINI, a current or prior diagnosis of bipolar disorder, a manic or hypomanic episode, a psychotic disorder, Major Depressive Disorder (MDD) or other mood disorder with psychotic features, obsessive compulsive disorder, post-traumatic stress disorder (PTSD), autism spectrum disorder, borderline personality disorder, schizophrenia, delusional disorder, paranoid personality disorder, schizoaffective disorder, clinically significant intellectual disability, or any other psychiatric comorbidity that renders the patient unsuitable for the trial according to the investigator's judgment. • 2. Has one or more first or second degree relatives with a current or previously diagnosed bipolar disorder, psychotic disorder or other mood disorder (including MDD) with psychotic features. • 3. Is in the judgement of a trial psychiatrist or registered psychologist, at significant risk for suicide based on history, psychiatric assessment, and evaluation of suicidal ideation and suicidal behaviour based on the Columbia-Suicide Severity Rating Scale (C-SSRS). • 4. Has taken anti-depressive medication within 14 days or 5 half-lives (whichever is longer) prior to dosing (exception: within the last 5 weeks in the case of fluoxetine). • 5.

[2] = test system: Salmonella typhimurium TA98, TA100, TA1535 and TA1537; test: Bacterial mutation test, Salmonella typhimurium; assay type: cell-based; details: up to 5000 μg/plate, absence and presence of S-9
Procedure: These conditions included treatments at concentrations up to 5000 μg/plate (the maximum recommended concentration according to current regulatory guidelines), in the absence and in the presence of a rat liver metabolic activation system (S-9).

[3] = Pharmacokinetics of 5-MeO-DMT and bufotenine after inhalation; assay type: in vivo, human
Procedure: Blood samples were obtained at 1; 2; 4; 7; 10; 15; 20; 30; 45 min and 1; 1.5; 2; 3; 4 hours after administration.
PK parameters were generated by algebraic analysis of the concentration versus time plots for each individual. The analysis was carried out using the software Phoenix WinNonlin 6.3.

COc1ccc2[nH]cc(CCN(C)C)c2c1 [5-MeO-DMT]
BIMF Adjustment Δ (Day 7) [1]: 1
BIMF Infant Care Δ (Day 7) [1]: 0
BIMF Management Δ (Day 7) [1]: 5
BIMF Mother-Child Interaction Δ (Day 7) [1]: 2
BIMF Psychological Well-being Δ (Day 7) [1]: 9
BIMF Self-Care Δ (Day 7) [1]: 4
BIMF Social Support Δ (Day 7) [1]: 1
BIMF TOTAL Δ (Day 7) [1]: 13
ECG (3 hours), safety laboratory analyses (7 days), CADSS (3 hours, 1 day, 7 days) [1]: unremarkable
MADRS response and MADRS remission criteria [1]: fulfilled standard criteria for MADRS response
Reported adverse events (cramping left abdominal pain and headache, Day 0) [1]: mild, short-lasting and resolved spontaneously
Time to clinical remission after administration according to the IDR [1]: ≤ 2 h
Tolerability of the inhalation procedure [1]: well tolerated with no inhalation-related adverse events
Total MADRS improvement ([1]; 2 hr): 24
Total MADRS score ([1]; 2 hr, baseline 29): 5
BPRS Tension improvement ([1]; Day 1): 5
Total MADRS improvement ([1]; Day 1): 29
Total MADRS score ([1]; Day 1, baseline 29): 0
BIMF Adjustment % Improvement ([1]; Day 7): 20.00%
BIMF Infant Care % Improvement ([1]; Day 7): 0.00%
BIMF Management % Improvement ([1]; Day 7): 18% and 17.86%
BIMF Mother-Child Interaction % Improvement ([1]; Day 7): 13.33%
BIMF Psychological Well-being % Improvement ([1]; Day 7): 20.45%
BIMF Self-Care % Improvement ([1]; Day 7): 44% and 44.44%
BIMF Social Support % Improvement ([1]; Day 7): 5.88%
BIMF total score improvement ([1]; Day 7): 14%
Total MADRS improvement ([1]; Day 7): 28
BIMF functional domain Adjustment score ([1]; Day 7, Day 0 score 5, maximum 12): 6
BIMF item 6 (people in my life that I can trust to care for my baby) score ([1]; Day 7, Day 0 score 6): 6
BIMF functional domain Self-Care score ([1]; Day 7, Day 0 score 9, maximum 18): 13
BIMF functional domain Infant Care score ([1]; Day 7, Day 0 score 12, maximum 12): 12
BIMF functional domain Mother-Child Interaction score ([1]; Day 7, Day 0 score 15, maximum 18): 17
BIMF functional domain Social Support score ([1]; Day 7, Day 0 score 17, maximum 18): 18
BIMF functional domain Management score ([1]; Day 7, Day 0 score 28, maximum 36): 33
BIMF functional domain Psychological Well-being score ([1]; Day 7, Day 0 score 44, maximum 60): 53
Total MADRS score ([1]; Day 7, baseline 29): 1
BPRS Tension improvement ([1]; Discharge): 5
Changes in vital parameters ([1]; shortly after administration): temporary, clinically non-relevant increase in heart rate and blood pressure
Induction of mutation [2]: did not induce mutation
Detectability in the plasma ([3]; after 3 hours, 6, 12, 18 mg): no longer detectable
Accumulation upon repeated administration ([3]; repeated within 1 to 4 hours): No accumulation is observed
